Assay results reported in patent US20230203098A1, “HUMAN TRANSFERRIN RECEPTOR BINDING PEPTIDE” (priority 2020, published 2023).
Like-named read-outs stand apart in the source and are kept apart here. Values belong to the compound of their own block, whether it stands above or below them. *1 amine or outer side, *2 acyl side, *3 side chain or, on linkers, in order; H or OH if unused. Where a SMILES comes first, the peptide text is derived from it. Bridges are numbered along the chain shown (N, C = ends). [ ]: non-standard residue; d: D form. The star is where a group is joined. X2 = O=C(O)c1cc(C(=O)*)ccc1-c1c2ccc(=O)cc-2oc2cc(O)ccc12; PEG12 = NCCOCCOCCOCCOCCOCCOCCOCCOCCOCCOCCOCCOCCC(=O)O; X3 = NC(=O)Cn1cc(C[C@H](N[*:1])C(=O)[*:2])c2ccccc21; NMePhe(3-Cl) = CN[C@@H](Cc1cccc(Cl)c1)C(=O)O; NMeW = CN[C@@H](Cc1c[nH]c2ccccc12)C(=O)O; NMeY = CN[C@@H](Cc1ccc(O)cc1)C(=O)O; PEG4 = NCCOCCOCCOCCOCCC(=O)O; Tle = CC(C)(C)[C@H](N)C(=O)O; Aib = CC(C)(N)C(=O)O

Target: transferrin receptor (hTfR) (Homo sapiens, UniProt P02786)
Assay: Intermolecular interaction evaluation test between transferrin receptor (hTfR) and peptide by surface plasmon resonance (SPR)
Assay type: binding
Protocol: For each of the various synthesized peptides, the intermolecular interaction of the peptide with the transferrin receptor (hTfR) was tested by surface plasmon resonance (SPR) according to the following method. The specific test method is as follows.
An NTA sensor chip (Global Life Sciences Technologies Japan) was inserted in a Biacore T200 (Global Life Sciences Technologies Japan) and a prime operation was performed 3 times with a running buffer: 10 mM HEPES pH 8.0 (Nacalai Tesque), 150 mM NaCl (Nacalai Tesque), 0.05% Tween 20 (Nacalai Tesque), 0.1% BSA (Sigma-Aldrich), 1.0% DMSO (FUJIFILM Wako Pure Chemical) to create an Equilibration state at a flow rate of 30 µL/min. After reacting with 350 mM EDTA solution for 60 seconds at a flow rate of 10 µL/min then reacting with 0.5 mM NiCl2 solution (Kishida Chemical) for 60 seconds at a flow rate of 10 µL/min, the NTA sensor chip was washed with 3 mM EDTA solution (Nacalai Tesque) for 60 seconds at a flow rate of 10 µL/min. After mixing 50 µL each of 60 mM EDC solution (Global Life Sciences Technologies Japan) and 650 mM NHS solution (Global Life Sciences Technologies Japan), the mixture was reacted for 420 seconds at a flow rate of 10 µL/min. By diluting with the running buffer, 150 µL of 3.2 µM hTfR solution was prepared and used for reaction for 600 seconds at a flow rate of 10 µL/min, thereby immobilizing hTfR on the NTA sensor chip. After immobilization, capping was performed by reacting with 1.0 M ethanolamine aqueous solution (Global Life Sciences Technologies Japan) for 420 seconds at a flow rate of 10 µL/min. A peptide dissolution liquid prepared to 10 mM in the DMSO solution was diluted with the running buffer to a final concentration of 10 µM so as to become the peptide dissolution liquid, then peptide solutions of 100 nM, 50 nM, 25 nM, 10 nM and 5 nM were prepared. Kinetics of the peptide to hTfR was acquired by SPR measurement using the above-mentioned samples. Single-cycle kinetics was used as a kinetic evaluation model and curve fitting was performed using Biacore T200 Evaluation Software Version 3.0 (Global Life Sciences Technologies Japan). An obtained sensorgram was subjected to curve fitting using the least-squares method, and the binding of the peptide to hTfR was evaluated by obtaining KD values. […] A chemical structure of hTfR No. 894 is as follows.
The variant peptides were synthesized according to Example 1 unless otherwise stated in Example 9 or 10. The linker-added peptides were synthesized according to Example 1, except that Fmoc-NH-SAL-PEG resin (Watanabe Chemical Industries) was used as a resin for the peptide synthesis when the linker was PEG. The peptide, to which a peptide, a fatty acid, PEG, or a conjugate thereof is added as a linker, was also synthesized according to Example 1, unless otherwise stated in Example 9 or 10.

[1] = binding to hTfR by SPR, Table 2 peptides, read-out: KD value (SPR) class
[2] = surface plasmon resonance, peptide vs hTfR, read-out: KD value, hTfR binding by SPR (class symbol)
[3] = surface plasmon resonance, hTfR, read-out: KD value for hTfR by SPR (class symbol)

transferrin receptor (hTfR), sequence (P02786 whole entry): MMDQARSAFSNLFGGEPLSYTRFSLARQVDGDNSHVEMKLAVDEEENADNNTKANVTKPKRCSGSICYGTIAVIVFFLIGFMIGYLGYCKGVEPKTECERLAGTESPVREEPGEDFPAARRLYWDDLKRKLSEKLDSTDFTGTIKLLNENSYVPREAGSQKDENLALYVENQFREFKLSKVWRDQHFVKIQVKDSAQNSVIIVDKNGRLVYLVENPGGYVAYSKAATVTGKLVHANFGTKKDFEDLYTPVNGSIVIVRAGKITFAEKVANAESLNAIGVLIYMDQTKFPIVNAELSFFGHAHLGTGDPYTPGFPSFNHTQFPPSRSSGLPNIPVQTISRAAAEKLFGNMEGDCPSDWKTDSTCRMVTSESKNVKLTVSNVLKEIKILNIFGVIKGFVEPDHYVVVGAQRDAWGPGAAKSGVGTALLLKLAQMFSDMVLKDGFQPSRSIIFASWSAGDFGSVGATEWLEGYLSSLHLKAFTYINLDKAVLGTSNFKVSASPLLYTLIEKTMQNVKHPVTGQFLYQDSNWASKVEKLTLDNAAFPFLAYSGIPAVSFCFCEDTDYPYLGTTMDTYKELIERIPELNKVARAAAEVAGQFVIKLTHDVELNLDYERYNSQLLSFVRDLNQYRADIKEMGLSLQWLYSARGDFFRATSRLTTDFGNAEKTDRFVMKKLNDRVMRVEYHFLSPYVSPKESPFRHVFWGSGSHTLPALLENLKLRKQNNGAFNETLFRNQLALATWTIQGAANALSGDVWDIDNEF

SMILES: CC[C@H](C)[C@@H]1NC(=O)[C@H](Cc2ccc(O)cc2)NC(=O)[C@H](Cc2ccc(O)cc2)NC(=O)[C@H](Cc2c[nH]cn2)NC(=O)[C@H](Cc2c[nH]c3ccccc23)NC(=O)[C@H](C(C)C)NC(=O)[C@H](Cc2ccccc2)N(C)C(=O)[C@H](C(C)C)NC(=O)[C@H](C)NC(=O)CSC[C@@H](C(N)=O)NC(=O)[C@H](Cc2ccc(O)cc2)N(C)C(=O)[C@H](Cc2ccc(O)cc2)NC(=O)[C@H](CCCNC(=N)N)NC(=O)[C@H](CCCNC(=N)N)NC(=O)[C@H]([C@@H](C)CC)NC1=O [compound 274]
Kd [1]: 100 to 1000 nM

SMILES: CC[C@H](C)[C@@H]1NC(=O)[C@H](Cc2ccc(OC)cc2)NC(=O)[C@H](Cc2ccc(O)cc2)NC(=O)[C@H](CC(N)=O)NC(=O)[C@H](Cc2c[nH]c3ccccc23)N(C)C(=O)[C@H](C(C)C)NC(=O)[C@H](Cc2cccc(Cl)c2)N(C)C(=O)[C@H](C(C)C)NC(=O)[C@H](C)NC(=O)CSC[C@@H](C(=O)NCC(=O)NCC(=O)NCC(=O)NCC(=O)N[C@@H](CO)C(=O)N[C@@H](CO)C(=O)N[C@@H](CS)C(N)=O)NC(=O)[C@H](Cc2ccc(O)cc2)N(C)C(=O)[C@H](Cc2ccccc2)NC(=O)[C@@H](CCCNC(=N)N)NC(=O)[C@H](CCCCCN)NC(=O)[C@H]([C@@H](C)CC)NC1=O [compound 370]
Kd: 1 to 100 nM

SMILES: CC[C@H](C)[C@@H]1NC(=O)[C@H](Cc2ccc(O)cc2)NC(=O)[C@H](Cc2ccc(O)cc2)NC(=O)[C@H](CC(N)=O)NC(=O)[C@H](Cc2c[nH]c3ccccc23)NC(=O)[C@H](C(C)C)NC(=O)[C@H](Cc2ccccc2)NC(=O)[C@H](C(C)C)NC(=O)[C@H](C)NC(=O)CSC[C@@H](C(N)=O)NC(=O)[C@H](Cc2ccc(O)cc2)N(C)C(=O)[C@H](Cc2ccc(O)cc2)NC(=O)[C@H](CCCNC(=N)N)NC(=O)[C@H](CCCCN)N(C)C(=O)[C@H]([C@@H](C)CC)NC1=O [compound 254]
Kd [1]: 1 to 100 nM

SMILES: CC[C@H](C)[C@@H]1NC(=O)[C@H](Cc2ccc(O)cc2)NC(=O)[C@H](Cc2ccc(O)cc2)NC(=O)[C@H](CC(N)=O)NC(=O)[C@H](Cc2c[nH]c3ccccc23)NC(=O)[C@H](C(C)C)NC(=O)[C@H](Cc2ccccc2)NC(=O)[C@H](C(C)C)NC(=O)[C@H](C)NC(=O)CSC[C@@H](C(=O)NCCOCCOCCOCCOCCOCCOCCOCCOCCOCCOCCOCCOCCC(=O)N[C@@H](CCCCNC(=O)c2ccc(-c3c4ccc(=O)cc-4oc4cc(O)ccc34)c(C(=O)O)c2)C(N)=O)NC(=O)[C@H](CCCNC(=N)N)NC(=O)[C@H](Cc2ccccc2)NC(=O)[C@H](CCCNC(=N)N)NC(=O)[C@H](CC(=O)O)NC(=O)[C@H]([C@@H](C)CC)NC1=O [compound 148] ({CH2CO}-AVFVWNYYIIDRFRC[PEG12]K(X2)-NH2; thioether N-15)
Kd (SPR, linker and payload (FITC, VivoTag) conjugates, read-out: KD): 1 to 100 nM

SMILES: CC[C@H](C)[C@@H]1NC(=O)[C@H](Cc2ccc(OC)cc2)NC(=O)[C@H](Cc2ccc(O)cc2)NC(=O)[C@H](CC(N)=O)NC(=O)[C@H](Cc2c[nH]c3ccccc23)N(C)C(=O)[C@H](C(C)C)NC(=O)[C@H](Cc2cccc(Cl)c2)N(C)C(=O)[C@H](CCC(=O)O)NC(=O)[C@H](C)NC(=O)CSC[C@@H](C(N)=O)NC(=O)[C@H](Cc2ccc(O)cc2)N(C)C(=O)[C@H](Cc2ccccc2)NC(=O)[C@H](CCCNC(=N)N)NC(=O)[C@H](CCCNC(=N)N)NC(=O)[C@H]([C@@H](C)CC)NC1=O [compound 233]
Kd [1]: < 1 nM

SMILES: CC[C@H](C)[C@@H]1NC(=O)[C@H](Cc2ccc(OC)cc2)NC(=O)[C@H](Cc2ccc(O)cc2)NC(=O)[C@H](CC(N)=O)NC(=O)[C@H](Cc2cn(CC(N)=O)c3ccccc23)NC(=O)[C@H](C(C)C)NC(=O)[C@H](Cc2cccc(Cl)c2)N(C)C(=O)[C@H](C(C)C)NC(=O)[C@H](C)NC(=O)CSC[C@@H](C(N)=O)NC(=O)[C@H](Cc2ccc(O)cc2)N(C)C(=O)[C@H](Cc2ccccc2)NC(=O)[C@@H](CCCNC(=N)N)NC(=O)C(C)(C)NC(=O)[C@H]([C@@H](C)CC)NC1=O [compound 304] ({CH2CO}-AV[NMePhe(3-Cl)]V[X3]NYY(Me)II[Aib][dR]F[NMeY]C-NH2; thioether N-15)
Kd [2]: 100 to 1000 nM

Second part, the compound after the results:

Kd [2]: 1 to 100 nM
SMILES: CC[C@H](C)[C@@H]1NC(=O)[C@H](Cc2ccc(OC)cc2)NC(=O)[C@H](Cc2ccc(O)cc2)NC(=O)[C@H](CC(N)=O)NC(=O)[C@H](Cc2c[nH]c3ccccc23)N(C)C(=O)[C@H](C(C)C)NC(=O)[C@H](Cc2cccc(Cl)c2)N(C)C(=O)[C@H](C(C)C)NC(=O)[C@H](C)NC(=O)CSC[C@@H](C(=O)NCCOCCOCCOCCOCCC(N)=O)NC(=O)[C@H](Cc2ccc(O)cc2)N(C)C(=O)[C@H](Cc2ccccc2)NC(=O)[C@@H](CCCNC(=N)N)NC(=O)[C@H](CCCNC(=N)N)NC(=O)C(C)(C)NC1=O [compound 333] ({CH2CO}-AV[NMePhe(3-Cl)]V[NMeW]NYY(Me)I[Aib]R[dR]F[NMeY]C[PEG4]-NH2; thioether N-15)

Kd [2]: 1 to 100 nM
SMILES: CC[C@H](C)[C@@H]1NC(=O)[C@H](Cc2ccc(OC)cc2)NC(=O)[C@H](Cc2ccc(O)cc2)NC(=O)[C@H](CC(N)=O)NC(=O)[C@H](Cc2c[nH]c3ccccc23)N(C)C(=O)[C@H](C(C)C)NC(=O)[C@H](Cc2cccc(Cl)c2)N(C)C(=O)[C@H](C(C)C)NC(=O)[C@H](C)NC(=O)CSC[C@@H](C(=O)NCCOCCOCCOCCOCCC(N)=O)NC(=O)[C@H](Cc2ccc(O)cc2)N(C)C(=O)[C@H](Cc2ccccc2)NC(=O)[C@@H](CCCNC(=N)N)NC(=O)[C@H](CCCNC(=N)N)NC(=O)[C@H](C(C)(C)C)NC1=O [compound 327] ({CH2CO}-AV[NMePhe(3-Cl)]V[NMeW]NYY(Me)I[Tle]R[dR]F[NMeY]C[PEG4]-NH2; thioether N-15)

Kd [3]: 100 to 1000 nM
SMILES: CC[C@H](C)[C@@H]1NC(=O)[C@H](Cc2ccc(OC)cc2)NC(=O)[C@H](Cc2ccc(O)cc2)NC(=O)[C@H](CC(N)=O)NC(=O)[C@H](Cc2c[nH]c3ccccc23)N(C)C(=O)[C@H](C(C)C)NC(=O)[C@H](Cc2cccc(Cl)c2)N(C)C(=O)[C@H](C(C)C)NC(=O)[C@H](C)NC(=O)CSC[C@@H](C(=O)N[C@H](CCC(=O)O)C(N)=O)NC(=O)[C@H](Cc2ccc(O)cc2)N(C)C(=O)[C@H](Cc2ccccc2)NC(=O)[C@@H](CCCNC(=N)N)NC(=O)C(C)(C)NC(=O)[C@H]([C@@H](C)CC)NC1=O [compound 355]

Kd [2]: > 1000 nM
SMILES: CC[C@H](C)[C@@H]1NC(=O)[C@H](Cc2ccc(OC)cc2)NC(=O)[C@H](Cc2ccc(O)cc2)NC(=O)[C@H](CC(N)=O)NC(=O)[C@H](Cc2c[nH]c3ccccc23)NC(=O)[C@H](C(C)C)NC(=O)[C@H](Cc2cccc(Cl)c2)N(C)C(=O)[C@H](C(C)C)NC(=O)[C@H](C)NC(=O)CSC[C@@H](C(=O)NCCOCCOCCOCCOCCC(N)=O)NC(=O)[C@H](Cc2ccc(O)cc2)N(C)C(=O)[C@H](Cc2ccccc2)NC(=O)[C@@H](CCCNC(=N)N)NC(=O)C(C)(C)NC(=O)[C@H]([C@@H](C)CC)NC1=O [compound 310] ({CH2CO}-AV[NMePhe(3-Cl)]VWNYY(Me)II[Aib][dR]F[NMeY]C[PEG4]-NH2; thioether N-15)

Kd [3]: 1 to 100 nM
SMILES: CC[C@H](C)[C@@H]1NC(=O)[C@H](Cc2ccc(OC)cc2)NC(=O)[C@H](Cc2ccc(O)cc2)NC(=O)[C@H](CC(N)=O)NC(=O)[C@H](Cc2c[nH]c3ccccc23)N(C)C(=O)[C@H](C(C)C)NC(=O)[C@H](Cc2cccc(Cl)c2)N(C)C(=O)[C@H](C(C)C)NC(=O)[C@H](C)NC(=O)CSC[C@@H](C(=O)NCCOCCOCCOCCOCCC(N)=O)NC(=O)[C@H](Cc2ccc(O)cc2)N(C)C(=O)[C@H](Cc2ccccc2)NC(=O)[C@H](CCCNC(=N)N)NC(=O)C(C)(C)NC(=O)[C@H]([C@@H](C)CC)NC1=O [compound 351]
